SMILES strings stand for the structures.

One test concerns the target T1, human CYP11B2 (Homo sapiens, UniProt P19099).
T1 construct: expressed in transfected cells
T1 sequence (P19099 25-503): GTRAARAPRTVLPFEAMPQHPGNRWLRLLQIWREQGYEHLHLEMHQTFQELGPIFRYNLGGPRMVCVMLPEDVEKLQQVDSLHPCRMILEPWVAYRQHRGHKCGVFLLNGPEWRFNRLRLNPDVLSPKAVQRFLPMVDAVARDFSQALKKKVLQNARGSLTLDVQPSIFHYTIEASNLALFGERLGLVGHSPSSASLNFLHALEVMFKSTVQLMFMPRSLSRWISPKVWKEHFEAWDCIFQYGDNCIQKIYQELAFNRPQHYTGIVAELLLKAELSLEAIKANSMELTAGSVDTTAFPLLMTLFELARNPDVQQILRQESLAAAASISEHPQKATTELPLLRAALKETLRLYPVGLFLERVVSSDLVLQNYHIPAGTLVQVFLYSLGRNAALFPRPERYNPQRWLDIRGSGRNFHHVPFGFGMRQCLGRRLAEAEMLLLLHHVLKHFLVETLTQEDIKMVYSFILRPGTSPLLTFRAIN
In words: Inhibition of hCYP11B2 in transfected V79 cells. The class given is cell-based. To be noted: hamster V79 cells expressing human CYP11B2; substrate 11-deoxycorticosterone 200 nM. A digest of the protocol:
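The substrate (200 nM, 30 min) was added after a 2 hour compound pre-incubation in lentivirus-transduced V79 cells stably expressing human CYP11B2 plus rat NADPH-P450 reductase.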

The next test has as its target T2, human CYP11B1 (Homo sapiens, UniProt P15538).
T2 construct: expressed in transfected cells
T2 sequence (P15538 25-503): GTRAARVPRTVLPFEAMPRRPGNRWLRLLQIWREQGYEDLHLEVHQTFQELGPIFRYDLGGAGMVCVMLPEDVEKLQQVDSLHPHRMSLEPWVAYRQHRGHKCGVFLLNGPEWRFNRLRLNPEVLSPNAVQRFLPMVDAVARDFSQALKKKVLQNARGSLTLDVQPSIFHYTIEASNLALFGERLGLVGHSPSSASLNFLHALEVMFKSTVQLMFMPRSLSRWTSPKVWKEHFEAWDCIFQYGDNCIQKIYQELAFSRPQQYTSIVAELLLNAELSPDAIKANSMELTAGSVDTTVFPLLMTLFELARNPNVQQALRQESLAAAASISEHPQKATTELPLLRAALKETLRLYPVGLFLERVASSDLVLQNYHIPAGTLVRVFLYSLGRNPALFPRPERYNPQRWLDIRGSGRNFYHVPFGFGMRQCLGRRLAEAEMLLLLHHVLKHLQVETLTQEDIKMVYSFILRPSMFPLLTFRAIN
In words: Inhibition of hCYP11B1 in transfected V79 cells. The class given is cell-based. Conditions: hamster V79 cells expressing human CYP11B1; substrate 11-deoxycortisol 200 nM. A digest of the protocol:
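Reactions started with 200 nM 11-deoxycortisol, ran for 30 min and were stopped with ethyl acetate, after a 2 h compound preincubation. The host was stably transfected V79 hamster cells carrying human CYP11B1 plus rat P450 reductase. Percent inhibition, from LC-MS/MS or HPLC (260 nm) quantitation of substrate and product, gave the IC50.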

What is called IC50 is the midpoint of a concentration-inhibition curve. Low readings indicate higher potency, high ones lower potency. On to `N#Cc1ccc(-c2cncc3c2OCCN3C(=O)Cc2cccc(Cl)c2)cc1` [O39, 4-(4-(2-(3-Chlorophenyl)acetyl)-3,4-dihydro-2H-pyrido[4,3-b][1,4]oxazin-8-yl)benzonitrile], for which the IC50 against human CYP11B2 worked out at 2.6 nM; at human CYP11B1 it was 142 nM.
The matching figures for `COc1ccc(CC(=O)N2CCOc3c(-c4ccc(C#N)cc4)cncc32)cc1` [O40, 4-(4-(2-(4-Methoxyphenyl)acetyl)-3,4-dihydro-2H-pyrido[4,3-b][1,4]oxazin-8-yl)benzonitrile]: 0.8 nM and 73 nM.
For `COc1cccc(CC(=O)N2CCOc3c(-c4ccc(C#N)cc4)cncc32)c1` [O41, 4-(4-(2-(3-Methoxyphenyl)acetyl)-3,4-dihydro-2H-pyrido[4,3-b][1,4]oxazin-8-yl)benzonitrile], the IC50 at human CYP11B2 was found to be 1.8 nM; on human CYP11B1, 52 nM.
As for `Cc1ccc(CC(=O)N2CCOc3c(-c4ccc(C#N)cc4)cncc32)cc1` [O42, 4-(4-(2-(p-Tolyl)acetyl)-3,4-dihydro-2H-pyrido[4,3-b][1,4]oxazin-8-yl)benzonitrile], the IC50 at human CYP11B2 was 0.6 nM; against human CYP11B1, 67 nM.
Consider `Cc1cccc(CC(=O)N2CCOc3c(-c4ccc(C#N)cc4)cncc32)c1` [O43, 4-(4-(2-(m-Tolyl)acetyl)-3,4-dihydro-2H-pyrido[4,3-b][1,4]oxazin-8-yl)benzonitrile], for which the IC50 at human CYP11B2 is 4.7 nM; against human CYP11B1, 125 nM.
The matching figures for `Cc1ccccc1CC(=O)N1CCOc2c(-c3ccc(C#N)cc3)cncc21` [O44, 4-(4-(2-(o-Tolyl)acetyl)-3,4-dihydro-2H-pyrido[4,3-b][1,4]oxazin-8-yl)benzonitrile]: 4.8 nM and 84 nM.
The matching figures for `N#Cc1ccc(-c2cncc3c2OCCN3C(=O)Cc2ccc(C(F)(F)F)cc2)cc1` [O45, 4-(4-(2-(4-(Trifluoromethyl)phenyl)acetyl)-3,4-dihydro-2H-pyrido[4,3-b][1,4]oxazin-8-yl)benzonitrile]: 15.1 nM and 614 nM.
The matching figures for `N#Cc1ccc(-c2cncc3c2OCCN3C(=O)Cc2cccc(C(F)(F)F)c2)cc1` [O46, 4-(4-(2-(3-(Trifluoromethyl)phenyl)acetyl)-3,4-dihydro-2H-pyrido[4,3-b][1,4]oxazin-8-yl)benzonitrile]: 5.7 nM and 240 nM.
With `N#Cc1ccc(-c2cncc3c2OCCN3C(=O)CCc2ccc(F)cc2)cc1` [O47, 4-(4-(3-(4-Fluorophenyl)propanoyl)-3,4-dihydro-2H-pyrido[4,3-b][1,4]oxazin-8-yl)benzonitrile], the IC50 was determined as 3.8 nM against human CYP11B2 and 52 nM on human CYP11B1.
With `N#Cc1ccc(-c2cncc3c2OCCN3C(=O)CCc2cccc(F)c2)cc1` [O48, 4-(4-(3-(3-Fluorophenyl)propanoyl)-3,4-dihydro-2H-pyrido[4,3-b][1,4]oxazin-8-yl)benzonitrile], the values for the concentration for half-maximal inhibition (IC50) on human CYP11B2 and against human CYP11B1 were 2.1 nM and 117 nM, respectively.
The matching figures for `N#Cc1ccc(-c2cncc3c2OCCN3C(=O)CCc2ccc(Cl)cc2)cc1` [O49, 4-(4-(3-(4-Chlorophenyl)propanoyl)-3,4-dihydro-2H-pyrido[4,3-b][1,4]oxazin-8-yl)benzonitrile]: 1.6 nM and 54 nM.
Regarding `N#Cc1ccc(-c2cncc3c2OCCN3C(=O)CCc2cccc(Cl)c2)cc1` [O50, 4-(4-(3-(3-Chlorophenyl)propanoyl)-3,4-dihydro-2H-pyrido[4,3-b][1,4]oxazin-8-yl) benzonitrile], the IC50 came out at 5 nM against human CYP11B2 and 42 nM against human CYP11B1.
The matching figures for `COc1ccc(CCC(=O)N2CCOc3c(-c4ccc(C#N)cc4)cncc32)cc1` [O51, 4-(4-(3-(4-Methoxyphenyl)propanoyl)-3,4-dihydro-2H-pyrido[4,3-b][1,4]oxazin-8-yl)benzo nitrile]: 0.7 nM and 24 nM.
Consider `COc1cccc(CCC(=O)N2CCOc3c(-c4ccc(C#N)cc4)cncc32)c1` [O52, 4-(4-(3-(3-Methoxyphenyl)propanoyl)-3,4-dihydro-2H-pyrido[4,3-b][1,4]oxazin-8-yl)benzonitrile], for which the IC50 worked out at 1.1 nM at human CYP11B2 and 51 nM against human CYP11B1.
The matching figures for `N#Cc1ccc(-c2cncc3c2OCCN3C(=O)CCc2ccc(C(F)(F)F)cc2)cc1` [O53, 4-(4-(3-(4-(Trifluoromethyl)phenyl)propanoyl)-3,4-dihydro-2H-pyrido[4,3-b][1,4]oxazin-8-yl)benzonitrile]: 8.2 nM and 55 nM.
The matching figures for `N#Cc1ccc(-c2cncc3c2OCCN3C(=O)CCc2cccc(C(F)(F)F)c2)cc1` [O54]: 6.9 nM and 119 nM.
The matching figures for `N#Cc1ccc(-c2cncc3c2OCCN3C(=O)C2CCN(S(=O)(=O)c3cccc(F)c3)CC2)cc1` [O55, 4-(4-(1-((3-Fluorophenyl)sulfonyl)piperidine-4-carbonyl)-3,4-dihydro-2H-pyrido[4,3-b][1, 4]oxazin-8-yl)benzonitrile]: 2.1 nM and 114 nM.
As to `N#Cc1ccc(-c2cncc3c2OCCN3C(=O)C2CNC2)cc1` [O56, 4-(4-(Azetidine-3-carbonyl)-3,4-dihydro-2H-pyrido[4,3-b][1,4]oxazin-8-yl)benzonitrile], the 50% inhibitory concentration (IC50) against human CYP11B2 stood at 5.1 nM; against human CYP11B1, 292 nM.
On to `N#Cc1ccc(-c2cncc3c2OCCN3C(=O)C2CN(C(=O)c3ccc(F)cc3)C2)cc1` [O57, 4-(4-(1-(4-Fluorobenzoyl)azetidine-3-carbonyl)-3,4-dihydro-2H-pyrido[4,3-b][1,4]oxazin-8-yl)benzonitrile], for which the figures for the concentration for half-maximal inhibition (IC50) at human CYP11B2 and against human CYP11B1 were 1.6 nM and 102 nM, respectively.
Turning to `N#Cc1ccc(-c2cncc3c2OCCN3C(=O)C2CN(C(=O)c3cccc(F)c3)C2)cc1` [O58, 4-(4-(1-(3-Fluorobenzoyl)azetidine-3-carbonyl)-3,4-dihydro-2H-pyrido[4,3-b][1,4]oxazin-8-yl)benzonitrile], the results for the IC50 on human CYP11B2 and at human CYP11B1 were 1.9 nM and 132 nM, respectively.
As to `N#Cc1ccc(-c2cncc3c2OCCN3C(=O)CNC(=O)c2ccc(F)cc2)cc1` [O59, N-(2-(8-(4-Cyanophenyl)-2,3-dihydro-4H-pyrido[4,3-b][1,4]oxazin-4-yl)-2-oxoethyl)-4-fluorobenzamide], the concentration for half-maximal inhibition (IC50) against human CYP11B2 stood at 2.8 nM; against human CYP11B1, 276 nM.
The matching figures for `N#Cc1ccc(-c2cncc3c2OCCN3C(=O)C2CN(S(=O)(=O)c3ccc(F)cc3)C2)cc1` [O60, 4-(4-(1-((4-Fluorophenyl)sulfonyl)azetidine-3-carbonyl)-3,4-dihydro-2H-pyrido[4,3-b][1,4]oxazin-8-yl)benzonitrile]: 0.6 nM and 2.5 nM.
The matching figures for `N#Cc1ccc(-c2cncc3c2OCCN3C(=O)C2CN(S(=O)(=O)c3cccc(F)c3)C2)cc1` [O61, 4-(4-(1-((3-Fluorophenyl)sulfonyl)azetidine-3-carbonyl)-3,4-dihydro-2H-pyrido[4,3-b][1,4]oxazin-8-yl)benzonitrile]: 0.51 nM and 3.7 nM.
The matching figures for `N#Cc1ccc(-c2cncc3c2OCCN3C(=O)C2CN(S(=O)(=O)c3ccc([N+](=O)[O-])cc3)C2)cc1` [O62, 4-(4-(1-((4-Nitrophenyl)sulfonyl)azetidine-3-carbonyl)-3,4-dihydro-2H-pyrido[4,3-b][1,4]oxazin-8-yl)benzonitrile]: 3.3 nM and 178 nM.
As to `N#Cc1ccc(-c2cncc3c2OCCN3C(=O)C2CN(S(=O)(=O)c3cccc([N+](=O)[O-])c3)C2)cc1` [O63, 4-(4-(1-((3-Nitrophenyl)sulfonyl)azetidine-3-carbonyl)-3,4-dihydro-2H-pyrido[4,3-b][1,4]oxazin-8-yl)benzonitrile], the figures for the IC50 on human CYP11B2 and on human CYP11B1 were 2 nM and 181 nM, respectively.
With `N#Cc1ccc(-c2cncc3c2OCCN3C(=O)C2CN(S(=O)(=O)c3cccs3)C2)cc1` [O64, 4-(4-(1-(Thiophen-2-ylsulfonyl)azetidine-3-carbonyl)-3,4-dihydro-2H-pyrido[4,3-b][1,4]oxazin-8-yl)benzonitrile], the IC50 against human CYP11B2 is 0.5 nM; against human CYP11B1, 63 nM.

Source of the values: patent US20260092074A1, “Annelated Pyridines as Steroidogenesis Inhibitors, Preparation Method and Use Thereof” (Guangzhou Vinnocent Pharmaceutical Limited, priority 2022, published 2026).
